Where a name gives a salt, the structure may show the parent alone.
What was measured:
[1] = system: Pseudomonas syringae pv. tomato (Pto) DC3000; test: Bacterial liquid culture growth curves (OD600), Pto DC3000; settings: 18.5 h, read-out: Absolute growth rate relative to mock control, Pto DC3000
Rhodococcus sp. = test: Bacterial liquid culture growth curves (OD600), Rhodococcus sp.; settings: 18.5 h, read-out: Absolute growth rate relative to mock control, Rhodococcus sp.
Albugo laibachii [2] = test: Albugo laibachii on A. thaliana, syringe infiltration of compound, visual scoring of disease severity; type: in vivo; settings: in Arabidopsis thaliana, 100 μM in 1% DMSO syringe infiltrated into adult A. thaliana, visually scored at nine dpi, read-out: A. laibachii Inhibitory effect
Description: (§1) A. thaliana seeds were stratified on moist soil (Einheitserde type A240, Stender, Germany) for seven days at 4° C. in darkness, before transfer into growth chambers with short day conditions (10 h light, 14 h darkness, 23/20° C., 60% humidity). After three weeks, seedlings were singularised and grown for three weeks further. After six weeks, A. thaliana plants were used for experiments and after infection they were transferred into SANYO (Panasonic MLR-352, Japan) growth cabinets (10 h light, 14 h darkness, 22/16° C.). Potato plants were grown from tubers by covering them with soil (Einheitserde type A240, Stender, Germany). The leaves of adult plants (˜4-6 weeks old) were cut off and kept in a moist environment for infection assays.
(§2) For regular Albugo sp. infections A. thaliana Ws-0 was sprayed with an Albugo sp. conidiospores solution. These spore solutions were prepared by harvesting sporulating leaf material at 14 days post infection (dpi) and adding water for rehydration of the spores. Spore solutions were hold on ice for ˜1 h, before filtering through miracloth (Merck Millipore, Germany) to remove dirt. Spores were counted and the solutions diluted to 22.2×10^4 conidiospores/ml. Albugo sp. spore solutions were sprayed uniformly on A. thaliana leaves (4.5 ml per six plants) using an airbrush gun. During spraying, plants were placed in a plastic bag and afterwards transferred into a cold room to incubate at 4° C. in darkness (˜16 h). The next morning, plants were transferred into plant growth cabinets, but left in clear bags to keep humidity high, which supports Albugo sp. infections. ˜24 h later plants were unbagged and further incubated under normal plant growth conditions.
(§3) Afterwards, the plants were kept in the lab for ˜1 h to let the leaves equilibrate again. The infiltrated plants were infected with Albugo sp., following the above-mentioned protocol. At 7 dpi, infiltrated leaves were phenotypically scored and harvested. The samples were frozen in liquid nitrogen and stored at −80° C. until DNA extraction for growth quantification via qPCR. For experiment 4, A. candida spore solutions were prepared as before and mixed with 10 mM stock solution of the test compound (100 μM end conc.). The mixture of spore solution and test compound was sprayed and incubated as for experiment 2 and 3.
(§4) • Fungicidal activity against other oomycetes was tested using isolates of the obligate biotrophic pathogen genus Albugo on Arabidopsis thaliana. The test compounds, 100 μM in 1% DMSO, were syringe infiltrated into adult A. thaliana and subsequently sprayed with aqueous spore solutions of Albugo laibachii or A. candida. In primary screenings, disease severity was visually screened and scored at nine days post infection (dpi) (Table 2+3).

Albugo candida [3] = test: Albugo candida on A. thaliana, syringe infiltration of compound, visual scoring of disease severity; type: in vivo; settings: in Arabidopsis thaliana, read-out: A. candida Inhibitory effect
Description: as §1, §2, §3, §4

Phytophthora infestans = test: whole plant or invertebrate; type: in vivo; settings: in Solanum tuberosum, 120 h, read-out: P. infestans % inhibition
Albugo candida [4] = test: Albugo candida growth on A. thaliana after syringe infiltration, quantified via qPCR; type: in vivo; settings: for inhibition at 100 µM: Albugo candida, in Arabidopsis thaliana, qPCR at 7 dpi, A. thaliana; for inhibition of A. candida growth (in words): Table 4, qPCR at 7 dpi
Albugo laibachii [5] = test: Albugo laibachii growth on A. thaliana after syringe infiltration, quantified via qPCR; type: in vivo; settings: for inhibition at 100 µM: Albugo laibachii, in Arabidopsis thaliana, qPCR at 7 dpi, A. thaliana; for inhibition of A. laibachii growth (in words): Table 4, qPCR at 7 dpi, p 5 0.05
P. infestans = test: whole plant or invertebrate; type: in vivo; settings: Phytophthora infestans, in Solanum tuberosum, read-out: P. infestans % inhibition
A. candida = A. candida growth on A. thaliana after spray application of spore solution mixed with compound, qPCR; type: in vivo, Albugo candida

Row | SMILES | activity at 100 µM [1] [%] | activity at 100 µM (Rhodococcus sp.) [%] | inhibition at 100 µM (Albugo laibachii [2]) [%] | inhibition at 100 µM (Phytophthora infestans) [%] | further results
1 | Oc1ccc(-c2cc(-c3cccc(Br)c3)[nH]n2)cc1O [Compound 4, 5-(3-Bromophenyl)-3-(3,4-dihydroxyphenyl)-1H-pyrazole] | 48 | -1 | 5 to 30 |  | 
2 | Oc1ccc(-c2cc(-c3cc(O)c(O)c(O)c3)n[nH]2)cc1O [Compound 5, 5-(3,4-Dihydroxyphenyl)-3-(3,4,5-trihydroxyphenyl)-1H-pyrazole] | 40 | 64 |  | 89 | inhibition at 100 µM (Albugo candida [3]): > 70%
3 | Oc1cc(-c2cc(-c3cc(Br)cc(Br)c3)[nH]n2)cc(O)c1O [Compound 6, 5-(3,5-Dibromophenyl)-3-(3,4,5-trihydroxyphenyl)-1H-pyrazole] | 73 | 1 | > 70 |  | 
4 | Fc1cccc(-c2cc(-c3ccc4c(c3)OCO4)n[nH]2)c1 [Compound 7, 3-(1,3-Benzodioxol-5-yl)-5-(3-fluorophenyl)-1H-pyrazole] | 98 | 14 | 30 to 70 |  | 
5 | Ic1cccc(-c2cc(-c3ccc4c(c3)OCO4)n[nH]2)c1 [Compound 8, 3-(1,3-Benzodioxol-5-yl)-5-(3-iodophenyl)-1H-pyrazole] | 100 | 35 | 5 to 30 |  | 
6 | COc1cccc(-c2cc(-c3ccc4c(c3)OCO4)n[nH]2)c1 [Compound 9, 3-(1,3-Benzodioxol-5-yl)-5-(3-methoxyphenyl)-1H-pyrazole] | 100 | 8 | 30 to 70 |  | 
7 | Brc1ccccc1-c1cc(-c2ccc3c(c2)OCO3)n[nH]1 [Compound 10, 3-(1,3-Benzodioxol-5-yl)-5-(2-bromophenyl)-1H-pyrazole] | 111 | 24 |  | 82 | inhibition at 100 µM (Albugo candida [4]): 68%; inhibition of A. candida growth (in words) (Albugo candida [4]): strong inhibition; inhibition at 100 µM (Albugo laibachii [5]): 36%
8 | FC(F)(F)c1cccc(-c2cc(-c3ccc4c(c3)OCO4)n[nH]2)c1 [Compound 11, 3-(1,3-Benzodioxol-5-yl)-5-[3-(trifluoromethyl)phenyl]-1H-pyrazole] | 81 | 110 | 5 to 30 |  | 
9 | CN(C)c1ccc(-c2cc(-c3cccc(Br)c3)[nH]n2)cc1 [Compound 13, 5-(3-Bromophenyl)-3-[4-(dimethylamino)phenyl]-1H-pyrazole] |  |  | > 70 |  | 
10 | Oc1ccc(-c2cc(-c3cccc(F)c3)[nH]n2)cc1O [Compound 16, 3-(3,4-Dihydroxyphenyl)-5-(3-fluorophenyl)-1H-pyrazole] | 66 | 0 | 30 to 70 |  | 
11 | COc1ccc(-c2cc(-c3ccc(OC)c(OC)c3)on2)cc1 [Compound 19, 5-(3,4-Dimethoxyphenyl)-3-(4-methoxyphenyl)isoxazole] | 95 | 58 |  | 26 | inhibition at 100 µM (Albugo candida [3]): > 70%; inhibition at 100 µM (Albugo candida [4]): 70%; inhibition of A. candida growth (in words) (Albugo candida [4]): strong inhibition; inhibition at 100 µM (Albugo laibachii [5]): 59%; inhibition of A. laibachii growth (in words) (Albugo laibachii [5]): significantly inhibited
12 | Oc1ccc(-c2cc(-c3ccc(O)c(O)c3)on2)cc1 [Compound 22, 5-(3,4-Dihydroxyphenyl)-3-(4-hydroxyphenyl)isoxazole] |  |  | > 70 | 63 | inhibition at 100 µM (Albugo candida [4]): 53%; inhibition of A. candida growth (in words) (Albugo candida [4]): strong inhibition; inhibition at 100 µM (Albugo laibachii [5]): 49%; inhibition of A. laibachii growth (in words) (Albugo laibachii [5]): significantly inhibited
13 | Oc1ccc(-c2c[nH]c(-c3ccc(O)c(O)c3)n2)cc1O [Compound 28, 2,4-Bis(3,4-dihydroxyphenyl)-1H-imidazole hydrobromide] | 49 | 71 | 30 to 70 | 30 | inhibition at 100 µM (Albugo candida [4]): 49%; inhibition at 100 µM (Albugo laibachii [5]): 4%
14 | COc1ccc(-c2cc(-c3cccc(Br)c3)[nH]n2)cc1OC [Compound 29, 5-(3-Bromophenyl)-3-(3,4-dimethoxyphenyl)-1H-pyrazole] | 88 | 62 | 30 to 70 |  | 
15 | COc1ccc(-c2cc(-c3ccc(O)cc3)[nH]n2)cc1OC [Compound 32, 3-(3,4-Dimethoxyphenyl)-5-(4-hydroxyphenyl)-1H-pyrazole] | 90 | 10 |  | 77 | 
16 | COc1ccc(-c2cc(-c3cccc(O)c3)[nH]n2)cc1OC [Compound 33, 3-(3,4-Dimethoxyphenyl)-5-(3-hydroxyphenyl)-1H-pyrazole] | 90 | 6 |  | 85 | inhibition at 100 µM (P. infestans): 84%
17 | Oc1cccc(-c2cc(-c3ccc4c(c3)OCO4)n[nH]2)c1 [Compound 34, 3-(1,3-Benzodioxol-5-yl)-5-(3-hydroxyphenyl)-1H-pyrazole] | 56 | -1 | 30 to 70 |  | 
18 | Clc1cccc(-c2cc(-c3ccc4c(c3)OCO4)n[nH]2)c1 [Compound 35, 3-(1,3-Benzodioxol-5-yl)-5-(3-chlorophenyl)-1H-pyrazole] | 85 | 11 | 30 to 70 |  | 
19 | Br.Oc1ccc(-c2cc(-c3ccc(Cl)cc3)[nH]n2)cc1 [Compound 36, 5-(4-Chlorophenyl)-3-(4-hydroxyphenyl)-1H-pyrazole hydrobromide] | 104 | 9 |  | 95 | inhibition at 100 µM (P. infestans): 85%; inhibition at 100 µM (A. candida; Candida, in Arabidopsis thaliana, spray application of spore solution mixed with 100 μM compound in 1% DMSO, qPCR at 7 dpi, A. thaliana): 94%; growth inhibition of A. candida (in words) (A. candida; Table 5, spore solution mixed with compound, sprayed): strong growth inhibition; inhibition at 100 µM (Albugo candida [3]): > 70%
20 | Brc1ccc(-c2cc(-c3ccc4c(c3)OCO4)n[nH]2)cc1 [Compound 38, 3-(1,3-Benzodioxol-5-yl)-5-(4-bromophenyl)-1H-pyrazole] |  |  | > 70 |  | inhibition at 100 µM (Albugo candida [4]): 53%; inhibition of A. candida growth (in words) (Albugo candida [4]): strong inhibition; inhibition at 100 µM (Albugo laibachii [5]): 50%; inhibition of A. laibachii growth (in words) (Albugo laibachii [5]): significantly inhibited
21 | Nc1ccc(-c2cc(-c3cccc(Cl)c3)[nH]n2)cc1 [Compound 39, 3-(4-Aminophenyl)-5-(3-chlorophenyl)-1H-pyrazole] | 94 | -1 | 30 to 70 |  | 
22 | Nc1ccc(-c2cc(-c3cccc(Br)c3)[nH]n2)cc1 [Compound 40, 3-(4-Aminophenyl)-5-(3-bromophenyl)-1H-pyrazole] | 91 | -1 | > 70 |  | 
23 | Cn1nc(-c2ccc3c(c2)OCO3)cc1-c1cccc(Br)c1 [Compound 41, 3-(1,3-Benzodioxol-5-yl)-5-(3-bromophenyl)-1-methyl-1H-pyrazole] | 106 | 62 | 30 to 70 |  | 
24 | COc1ccc(-c2cc(-c3ccc(OC)c(OC)c3)on2)cc1OC [Compound 43, 3,5-Bis(3,4-dimethoxyphenyl)isoxazole] | 114 | 75 |  |  | inhibition at 100 µM (Albugo candida [3]): > 70%
